Laboratory results published in PubChem BioAssay (NCI).
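Five concentrations, 48 hours, 96-well plates. The concentration for 50% growth inhibition is given as GI50. Definition used: TGI = concentration required for complete inhibition of growth.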

Columns and labels:
Test in all cases: NCI tumour cell line growth inhibition, 48 h
A498 renal = system: A498 renal
SK-MEL-5 melanoma = system: SK-MEL-5 melanoma
M14 melanoma = system: M14 melanoma
SN12C renal = system: SN12C renal
TK-10 renal = system: TK-10 renal
T-47D breast = system: T-47D breast
EKVX NSCLC = system: EKVX NSCLC
UACC-257 melanoma = system: UACC-257 melanoma
SR leukemia = system: SR leukemia
A549 NSCLC = system: A549 NSCLC
HCT-15 colon = system: HCT-15 colon
SF-539 CNS = system: SF-539 CNS
MDA-MB-435 = system: MDA-MB-435
HOP-62 NSCLC = system: HOP-62 NSCLC
COLO 205 colon = system: COLO 205 colon
SF-295 CNS = system: SF-295 CNS
RPMI-8226 leukemia = system: RPMI-8226 leukemia
IGROV1 ovarian = system: IGROV1 ovarian
BT-549 breast = system: BT-549 breast
SK-MEL-28 melanoma = system: SK-MEL-28 melanoma
CAKI-1 renal = system: CAKI-1 renal
CCRF-CEM leukemia = system: CCRF-CEM leukemia
UACC-62 melanoma = system: UACC-62 melanoma
K-562 leukemia = system: K-562 leukemia
NCI-H460 lung = system: NCI-H460 lung
KM12 colon = system: KM12 colon
OVCAR-5 ovarian = system: OVCAR-5 ovarian
DU-145 prostate = system: DU-145 prostate
U251 CNS = system: U251 CNS
OVCAR-8 ovarian = system: OVCAR-8 ovarian
NCI-H226 lung = system: NCI-H226 lung
PC-3 prostate = system: PC-3 prostate
SK-MEL-2 melanoma = system: SK-MEL-2 melanoma
SNB-19 CNS = system: SNB-19 CNS
NCI/ADR-RES ovarian = system: NCI/ADR-RES ovarian
MDA-MB-468 breast = system: MDA-MB-468 breast
HCC-2998 colon = system: HCC-2998 colon
OVCAR-4 ovarian = system: OVCAR-4 ovarian
ACHN renal = system: ACHN renal
NCI-H522 lung = system: NCI-H522 lung
SNB-75 CNS = system: SNB-75 CNS
HOP-92 NSCLC = system: HOP-92 NSCLC
MDA-MB-231 breast = system: MDA-MB-231 breast
SK-OV-3 ovarian = system: SK-OV-3 ovarian
HT29 colon = system: HT29 colon
HL-60(TB) leukemia = system: HL-60(TB) leukemia
SF-268 CNS = system: SF-268 CNS
OVCAR-3 ovarian = system: OVCAR-3 ovarian
HCT-116 colon = system: HCT-116 colon
NCI-H23 lung = system: NCI-H23 lung
LOX IMVI melanoma = system: LOX IMVI melanoma
SW-620 colon = system: SW-620 colon
RXF 393 renal = system: RXF 393 renal
MCF7 breast = system: MCF7 breast
UO-31 renal = system: UO-31 renal
HS 578T breast = system: HS 578T breast
MALME-3M melanoma = system: MALME-3M melanoma
MOLT-4 leukemia = system: MOLT-4 leukemia
786-0 renal = system: 786-0 renal

Q: What does the source list for `COc1ccc(-c2nnc3c(/C=C/c4ccc(Br)cc4)nc4ccccc4n23)cc1`?
A: GI50 (A498 renal): 22.8 µM; TGI (A498 renal): 91.4 µM; GI50 (SK-MEL-5 melanoma): 10.8 µM; TGI (SK-MEL-5 melanoma): 22.7 µM; GI50 (M14 melanoma): 2.41 µM; TGI (M14 melanoma): 10.2 µM; GI50 (SN12C renal): 2.24 µM; TGI (SN12C renal): 8.9 µM; GI50 (TK-10 renal): 13.5 µM; TGI (TK-10 renal): 26.3 µM; GI50 (T-47D breast): 10.5 µM; TGI (T-47D breast): 25.5 µM; GI50 (EKVX NSCLC): 12.1 µM; TGI (EKVX NSCLC): 26.1 µM; GI50 (UACC-257 melanoma): 13.1 µM; TGI (UACC-257 melanoma): 25.8 µM; GI50 (SR leukemia): 1.04 µM; TGI (SR leukemia): 3.94 µM; GI50 (A549 NSCLC): 12 µM; TGI (A549 NSCLC): 24.4 µM; GI50 (HCT-15 colon): 1.47 µM; TGI (HCT-15 colon): 3.25 µM; GI50 (SF-539 CNS): 2.45 µM; TGI (SF-539 CNS): 6.91 µM; GI50 (MDA-MB-435): 11.7 µM; TGI (MDA-MB-435): 23.9 µM; GI50 (HOP-62 NSCLC): 15.5 µM; TGI (HOP-62 NSCLC): 32 µM; GI50 (COLO 205 colon): 4.19 µM; TGI (COLO 205 colon): 15.1 µM; GI50 (SF-295 CNS): 16 µM; TGI (SF-295 CNS): 33.1 µM; GI50 (RPMI-8226 leukemia): 4.11 µM; TGI (RPMI-8226 leukemia): 18.4 µM; GI50 (IGROV1 ovarian): 10.7 µM; TGI (IGROV1 ovarian): 22.6 µM; GI50 (BT-549 breast): 2.37 µM; TGI (BT-549 breast): 15.3 µM; GI50 (SK-MEL-28 melanoma): 8.85 µM; TGI (SK-MEL-28 melanoma): 21.1 µM; GI50 (CAKI-1 renal): 11.3 µM; TGI (CAKI-1 renal): 23.3 µM; GI50 (CCRF-CEM leukemia): 1.39 µM; TGI (CCRF-CEM leukemia): 4.9 µM; GI50 (UACC-62 melanoma): 5.61 µM; TGI (UACC-62 melanoma): 19.5 µM; GI50 (K-562 leukemia): 0.431 µM; TGI (K-562 leukemia): 13.1 µM; GI50 (NCI-H460 lung): 11.2 µM; TGI (NCI-H460 lung): 23.2 µM; GI50 (KM12 colon): 12.6 µM; TGI (KM12 colon): 25.1 µM; GI50 (OVCAR-5 ovarian): 3.97 µM; TGI (OVCAR-5 ovarian): 16 µM; GI50 (DU-145 prostate): 5.24 µM; TGI (DU-145 prostate): 17.7 µM; GI50 (U251 CNS): 6.97 µM; TGI (U251 CNS): 19.7 µM; GI50 (OVCAR-8 ovarian): 10.4 µM; TGI (OVCAR-8 ovarian): 22.1 µM; GI50 (NCI-H226 lung): 1.68 µM; TGI (NCI-H226 lung): 4.5 µM; GI50 (PC-3 prostate): 11.4 µM; TGI (PC-3 prostate): 23.5 µM; GI50 (SK-MEL-2 melanoma): 10.9 µM; TGI (SK-MEL-2 melanoma): 22.8 µM; GI50 (SNB-19 CNS): 13.7 µM; TGI (SNB-19 CNS): 26.8 µM; GI50 (NCI/ADR-RES ovarian): 10.3 µM; TGI (NCI/ADR-RES ovarian): 25.9 µM; GI50 (MDA-MB-468 breast): 2.08 µM; TGI (MDA-MB-468 breast): 8.39 µM; GI50 (HCC-2998 colon): 12.1 µM; TGI (HCC-2998 colon): 24.5 µM; GI50 (OVCAR-4 ovarian): 3.96 µM; TGI (OVCAR-4 ovarian): 16.4 µM; GI50 (ACHN renal): 2.55 µM; TGI (ACHN renal): 9.06 µM; GI50 (NCI-H522 lung): 0.156 µM; TGI (NCI-H522 lung): 0.301 µM; GI50 (SNB-75 CNS): 16 µM; TGI (SNB-75 CNS): 34.1 µM; GI50 (HOP-92 NSCLC): 1.14 µM; TGI (HOP-92 NSCLC): 7.29 µM; GI50 (MDA-MB-231 breast): 4.82 µM; TGI (MDA-MB-231 breast): 17.5 µM; GI50 (SK-OV-3 ovarian): 21.7 µM; TGI (SK-OV-3 ovarian): 64 µM; GI50 (HT29 colon): 2.56 µM; TGI (HT29 colon): 9.29 µM; GI50 (HL-60(TB) leukemia): 3.43 µM; TGI (HL-60(TB) leukemia): 16.8 µM; GI50 (SF-268 CNS): 14.4 µM; TGI (SF-268 CNS): 34.7 µM; GI50 (OVCAR-3 ovarian): 3.43 µM; TGI (OVCAR-3 ovarian): 14 µM; GI50 (HCT-116 colon): 1.47 µM; TGI (HCT-116 colon): 3.2 µM; GI50 (NCI-H23 lung): 9.39 µM; TGI (NCI-H23 lung): 21.3 µM; GI50 (LOX IMVI melanoma): 0.883 µM; TGI (LOX IMVI melanoma): 2.11 µM; GI50 (SW-620 colon): 0.728 µM; TGI (SW-620 colon): 2.24 µM; GI50 (RXF 393 renal): 1.24 µM; TGI (RXF 393 renal): 2.53 µM; GI50 (MCF7 breast): 2.8 µM; TGI (MCF7 breast): 14.9 µM; GI50 (UO-31 renal): 2.93 µM; TGI (UO-31 renal): 16.4 µM; GI50 (HS 578T breast): 16.7 µM; TGI (HS 578T breast): 57 µM; GI50 (MALME-3M melanoma): 1.3 µM; TGI (MALME-3M melanoma): 2.72 µM; GI50 (MOLT-4 leukemia): 2.7 µM; TGI (MOLT-4 leukemia): 12.1 µM; GI50 (786-0 renal): 1.54 µM; TGI (786-0 renal): 3.81 µM
